Test results as given in PubChem BioAssay (NCI).
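Step 1: Grow cells in 96-well plates. Step 2: Expose to compound for 48 hours at 5 concentrations. Step 3: Interpolate endpoints linearly; if unreached, use highest concentration. GI50 is the concentration that inhibits growth by half. TGI denotes the concentration required for complete inhibition of growth.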

Assays:
Assay in all cases: inhibition of tumour cell growth, NCI panel, 48 h
[1] = tested on: OVCAR-5 ovarian
[2] = tested on: NCI-H23 lung
[3] = tested on: HOP-62 NSCLC
[4] = tested on: SNB-19 CNS
[5] = tested on: SF-295 CNS
[6] = tested on: COLO 205 colon
[7] = tested on: HCT-116 colon
[8] = tested on: MOLT-4 leukemia
[9] = tested on: NCI-H522 lung
[10] = tested on: HS 578T breast

| SMILES | TGI [1] | TGI [2] | TGI [3] | TGI [4] | TGI [5] | TGI [6] | TGI [7] | TGI [8] | TGI [9] | GI50 [1] | GI50 [2] | GI50 [4] | GI50 [5] | GI50 [10] | TGI [10] | GI50 [7] | GI50 [9] | GI50 [8] | GI50 [3] | GI50 [6] |
| --- | --- | --- | --- | --- | --- | --- | --- | --- | --- | --- | --- | --- | --- | --- | --- | --- | --- | --- | --- | --- |
| CCc1cc(C(=O)OC)cn1C(=N)c1ccc(Cl)cc1 | > 100 µM | > 100 µM | > 100 µM | > 100 µM | > 100 µM | > 100 µM | > 100 µM | > 100 µM |  |  |  |  |  |  |  |  |  |  |  |  |
| CN(C)CC/C(=N\Nc1ccc([N+](=O)[O-])cc1)c1ccccc1 | 28.2 µM | 27.1 µM | 28.5 µM | 28.9 µM | 23.6 µM | 28.5 µM | 24 µM | 24.5 µM | 29.1 µM |  |  |  |  |  |  |  |  |  |  |  |
| O=C(O)C(SC(=S)c1ccc(C(=S)SC(C(=O)O)c2ccccc2)cc1)c1ccccc1 (stereo not given) | > 100 µM | > 100 µM | > 100 µM | > 100 µM | > 100 µM |  | > 100 µM | > 100 µM |  |  |  |  |  |  |  |  |  |  |  |  |
| C=C1C(=O)O[C@H]2[C@H]1CC/C(COC(=O)NCc1cn(C)c3ccccc13)=C\CC[C@@]1(C)O[C@@H]21 | 3.96 µM | 4.69 µM |  | 13 µM | 13.9 µM |  | 1.07 µM | 5.98 µM | 2.44 µM | 1.72 µM | 2.01 µM | 2.84 µM | 3.27 µM | 3.54 µM | 35.7 µM | 0.288 µM | 1.02 µM | 1.92 µM |  |  |
| O=[N+]([O-])c1cc(C(F)(F)F)cc([N+](=O)[O-])c1CCl | 10.1 µM | 5.7 µM | 30.6 µM | 19.9 µM | 10.8 µM | 4.14 µM | 2.46 µM | 1.39 µM | 0.812 µM |  |  |  |  |  |  |  |  |  |  |  |
| CCOc1ccccc1N1C(=O)C(=O)C(c2nc3ccccc3o2)C(=O)C1=O | > 100 µM | > 100 µM | > 100 µM | > 100 µM | > 100 µM | > 100 µM | > 100 µM | > 100 µM | > 100 µM |  |  |  |  |  |  |  |  |  |  |  |
| COc1ccc(-c2nc(-c3nc4ccc(OC)cc4[nH]3)c3ccccn23)cc1 | > 100 µM | > 100 µM | > 100 µM | > 100 µM |  | 39.7 µM | 13.1 µM | 16.9 µM | 11.2 µM | 11.4 µM | 12.7 µM | 5.26 µM |  | 2.57 µM | 7.15 µM | 3.63 µM | 2.89 µM | 3.37 µM | 5.07 µM | 7.19 µM |
| CCOC(=O)N1CCN(C=S)CC1 | > 100 µM | > 100 µM | > 100 µM | > 100 µM |  | > 100 µM | > 100 µM | > 100 µM | > 100 µM |  |  |  |  |  |  |  |  |  |  |  |
| CCOc1ccc2c(c1)[n+]([O-])c(-c1ccc(Cl)cc1)c(N)[n+]2[O-] | > 100 µM | > 100 µM | > 100 µM | > 100 µM | > 100 µM | > 100 µM | > 100 µM | > 100 µM | > 100 µM |  |  |  |  |  |  |  |  |  |  |  |
| CC(C)C1CC[C@@H](C)C[C@@]1(O)CC(N)=O (stereo not given in full) | > 100 µM | > 100 µM |  | > 100 µM | > 100 µM | > 100 µM | > 100 µM | > 100 µM | > 100 µM |  |  |  |  |  |  |  |  |  |  |  |
| CCCCNc1nc(C#N)c(N)s1 | > 100 µM | > 100 µM | > 100 µM | > 100 µM | > 100 µM | > 100 µM | > 100 µM | > 100 µM | > 100 µM |  |  |  |  |  |  |  |  |  |  |  |
